Earlier results as cited in US20100297232A1, “ONDANSETRON FILM COMPOSITIONS” (MonoSol Rx, LLC, priority 2009, published 2010).
Like-named read-outs stand apart in the source and are kept apart here.

## Cc1nccn1CC1CCc2c(c3ccccc3n2C)C1=O (centres unmarked) [ondansetron base, ondansetron]
pH 1.2 and below
  solubility: soluble
pH 8
  solubility: practically insoluble
